Test results reported in patent publication US20240075036A1, “THERAPEUTIC COMBINATIONS INCLUDING INHIBITORS OF THE P2X4 RECEPTOR FOR TREATING AND PREVENTING PROLIFERATIVE DISORDERS” (CHEMOTHERAPEUTISCHES FORSCHUNGSINSTITUT GEORG-SPEYER-HAUS, priority 2021, published 2024).

What was measured:
rat P2X4 receptor = biological target: T1, rat P2X4 receptor (Rattus norvegicus, UniProt P51577); conditions: cited from earlier work
T1 sequence (P51577 1-388): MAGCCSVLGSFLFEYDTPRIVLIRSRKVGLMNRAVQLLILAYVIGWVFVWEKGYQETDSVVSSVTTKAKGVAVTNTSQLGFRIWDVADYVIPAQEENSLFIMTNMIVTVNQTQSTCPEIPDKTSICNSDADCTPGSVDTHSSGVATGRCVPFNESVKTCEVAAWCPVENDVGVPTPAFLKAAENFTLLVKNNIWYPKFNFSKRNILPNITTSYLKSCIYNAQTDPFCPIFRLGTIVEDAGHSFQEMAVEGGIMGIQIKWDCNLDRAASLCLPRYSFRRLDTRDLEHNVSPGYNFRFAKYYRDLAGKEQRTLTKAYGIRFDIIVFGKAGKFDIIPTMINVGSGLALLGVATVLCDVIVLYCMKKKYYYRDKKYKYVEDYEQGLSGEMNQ

[1] = system: AOM/DSSATKN tumor organoids; conditions: P2x4 inhibitor in combination with 5-FU (20 μM) compared to each treatment alone; AOM/DSS tumor organoids
Description: Percentage of reseeding capacity compared to vehicle treated organoids is indicated. Data are mean±SD, n=4 replicates. […] Percentage of reseeding capacity compared to vehicle treated organoids is indicated.

[2] = system: patient-derived tumor organoids (PDTO) from pancreatic ductal adenocarcinoma; conditions: P2X4 inhibitor 5-BDBD combined with 5-FU
PC3 and C4-2B4 cells = conditions: selective P2XR4 antagonists; cited from earlier work
APTAK tumor organoids = assay: APTAK tumor organoids: S6 phosphorylation and organoid survival; type: cell-based, mice; conditions: P2x4 inhibitor in combination with 5-FU compared to each treatment alone
Protocol: Organoids were cultured in medium−/+doxycycline prior to the experiment. […] Organoids were cultured in medium−/+doxycycline prior to the experiment.
Colon tumor organoids were cultured as previously described (27). AOM/DSS induced colon tumors were harvested by opening the colon longitudinally and dissociated enzymatically for 30-40 min in digestion media containing 1 mg/ml collagenase I (Sigma-Aldrich), 0.5 mg/ml Dispase (Roche), 50 μg/ml DNase (Sigma-Aldrich) in RPMI medium containing 2% FCS. Supernatant was washed and filtered through a 70 μM cell strainer. Cells were then embedded in Matrigel (Corning, #356231) and cultured in Advanced Dulbecco's modified Eagle's medium/F12 (Invitrogen, #12634-028) supplemented with Glutamax (Invitrogen, #35050038), Hepes (Invitrogen, #15630056), Pen/Strep (Invitrogen, #15140122), N2 supplement (Invitrogen, #17502048), B27supplement (Invitrogen, #17504044) and n-Acetylcysteine (Sigma-Aldrich, #A91165). EGF (Invitrogen, #PMG8045), RspoI and noggin were added as niche factor.

[3] = system: S6 ribosomal protein phosphorylation (mTOR signaling); assay: Immunoblot analysis of survival pathways / S6 phosphorylation in AOM/DSS tumor organoids; type: cell-based, mice; conditions: ATP (100 μM) in presence of inhibitor; AOM/DSS tumor organoids
Protocol: Data are mean±SD, n=7. *p<0.05 by two-tailed Student's t-test. c, Immunoblot analysis of Lgr5EGFP-DTR(−) tumor organoids treated with ATP (100 μM), 2MeS ADP (100 μM) and adenosine (100 μM) for 30 min. […] Data are mean±SD, n=4 replicates. […] Data are mean±SD, n=3 replicates. One representative of three experiment performed is shown. n.s. p>0,05, *p<0.05***, p<0.001, ****p<0.0001 by 1-way ANOVA with Bonferroni's multiple comparison test. 1, Immunoblot analysis of doxycycline inducible P2x4 knockdown APTAK colon tumor organoids treated with 5-FU (20 μM). Organoids were cultured in medium−/+doxycycline prior to the experiment. […] Organoids were cultured in medium−/+doxycycline prior to the experiment. […] Data are mean±SD, n=3.
In vitro Lgr5+ cells ablation experiments, organoids were treated with 20 ng/ml DT (Millipore, #322326) in the culture medium. For human LGR5+ cells ablation, we treated LGR5-iCT organoids with 500 nM BB homodimerizer. Other treatments were performed as described in each figure legends.

SW480 cells = conditions: irinotecan and AZD2014 combination; orthotopic implantation; cited from earlier work
[4] = system: ectopic patient-derived colon tumor; conditions: irinotecan and AZD2014 combination; cited from earlier work
[5] = system: advanced colorectal cancer; conditions: treatment of advanced colorectal cancer; cited from earlier work
[6] = system: refractory metastatic colorectal cancer / refractory solid tumors; conditions: cited from earlier work
[7] = 24 patients with refractory metastatic colorectal cancer, everolimus combination cohorts

## O=C1CN=C(c2cccc(Br)c2)c2oc3ccccc3c2N1 [5-BDBD, 5-(3-bromophenyl)-1,3-dihydro-2H-benzofuro[3,2-e]-1,4-diazepin-2-one]
Rat P2X4 receptor
  antagonist action on ATP-induced currents: specific P2X4R antagonist
[1]
  organoid survival: decreased organoid survival
[2]
  tumor organoid survival: sensitizes tumor organoids to 5-FU administration and leads to reduced tumor organoid survival
PC3 and C4-2B4 cells
  growth, mobility and apoptosis of PCa cells: impaired the growth and mobility of PCa cells but not apoptosis
APTAK tumor organoids
  organoid survival: decreased organoid survival
[3]
  ATP induced phosphorylation of S6: reduced phosphorylation of S6 by ATP

## CNC(=O)c1cccc(-c2ccc3c(N4CCOC[C@@H]4C)nc(N4CCOC[C@@H]4C)nc3n2)c1 [AZD2014]
SW480 cells
  liver and lung metastases: totally inhibited liver and lung metastases
[4]
  tumor growth: drastically reduced ectopic patient-derived colon tumor growth

## CO[C@H]1C[C@@H]2CC[C@@H](C)[C@@](O)(O2)C(=O)C(=O)N2CCCC[C@H]2C(=O)O[C@H]([C@H](C)C[C@@H]2CC[C@@H](OCCO)[C@H](OC)C2)CC(=O)[C@H](C)/C=C(\C)[C@@H](O)[C@@H](OC)C(=O)[C@H](C)C[C@H](C)/C=C/C=C/C=C/1C [everolimus]
[5]
  clinical activity: limited clinical activity
[6]; [7]
  median time on treatment: 2.7 months
  patients remaining on treatment with stable disease for at least 3 months: 45%
[6]; everolimus in addition to 5-FU/LV and mFOLFOX6
  safety and tolerability: appears safe and tolerable
